{
  "source": "paper PMC8700061",
  "about": "“Fragment-Sized and Bidentate (Immuno)Proteasome Inhibitors Derived from Cysteine and Threonine Targeting Warheads” (Cells, 2021)",
  "key": {"β5i subunit of human iCP": {"molecular_target": "T1, β5i subunit of human iCP (Homo sapiens, UniProt P20618+P28062)", "T1 construct": "purchased Boston Biochem, Inc., Cambridge, MA, USA", "assay": "Inhibition of β5i activity (RA at 10 µM, IC50, IC50 shift), Suc-LLVY-AMC", "format": "biochemical", "conditions": "for Group efficiency (GE): ΔpIC50/ΔNheavy with compound 1 as reference", "protocol": "(§1) Residual activity measurements were performed at 10 μM final concentrations in the assay buffer (0.01% SDS, 50 mM Tris-HCl, 0.5 mM EDTA, pH 7.4). Stock solutions of the compounds were prepared in DMSO. To 50 μL of each compound in buffer, 25 μL of 0.8 nM human iCP or human cCP (both from Boston Biochem, Inc., Cambridge, MA, USA) were added. After incubation at 37 °C for 30 min, the reaction was started by adding of 25 μL of 100 μM relevant fluorogenic substrate: acetyl-Nle-Pro-Nle-Asp-AMC (Ac-nLPnLD-AMC, (Bachem, Bubendorf, Switzerland)) for β1, acetyl-Pro-Ala-Leu-7-amino-4-methylcoumarin (Ac-PAL-AMC, (Boston Biochem, Inc., Cambridge, MA, USA)) for β1i, t-butyloxycarbonyl-Leu-Arg-Arg-7-amino-4-methylcoumarin (Boc-LRR-AMC, (Bachem, Bubendorf, Switzerland)) for β2 and β2i, succinyl-Leu-Leu-Val-Tyr-7-amino-4-methylcoumarin (Suc-LLVY-AMC) (Bachem, Bubendorf, Switzerland) for β5 and β5i. Reaction progress was recorded on BioTek Synergy HT microplate reader by monitoring fluorescence at 460 nm (λex = 360 nm) for 90 min at 37 °C. The initial linear ranges were used to calculate velocity and determine residual activity. In the case of evaluation of β1, βi, β2, and β2i activities, the assay buffer was modified by replacing SDS with the proteasomal activator PA28α (Boston Biochem, Inc., Cambridge, MA, USA).\nFinal assay mixtures contained 0.2 nM human iCP or 0.2 nM human cCP in assay buffer (0.01% SDS (or PA28α in cases of β1, β1i subunits), 50 mM Tris-HCl, 0.5 mM EDTA, pH 7.4). Inhibitors were dissolved in DMSO and added to the black 96-well plates for at least eight different concentrations (the final concentration of DMSO was not more than 1%). […] Fluorescence was monitored at 460 nm (λex = 360 nm) for 90 min at 37 °C. The progress of the reactions was recorded and the initial linear ranges were used to calculate the velocity. IC50 values were calculated using GraphPadPrism (GraphPad Software, San Diego, CA, USA) and are means from at least three independent determinations."}, "β2i subunit of human iCP": {"molecular_target": "T2, β2i subunit of human iCP (Homo sapiens, UniProt P40306+P49720)", "T2 construct": "purchased Boston Biochem, Inc., Cambridge, MA, USA", "assay": "Residual β2i activity, Boc-LRR-AMC", "format": "biochemical", "conditions": "10 µM, PA28α", "protocol": "as §1"}, "[1]": {"assay": "UV-Vis-based stability assay in buffer", "format": "physicochemical", "conditions": "for Stability in Buffer (UV-Vis-based assay): after 1 h, assay buffer pH 7.4, 37 °C, 50 µM", "protocol": "The aqueous stability of all compounds was determined spectrophotometrically by following the changes in the absorption spectra of the compounds. The buffer solution (50 mM Tris-HCl, 0.5 mM EDTA, pH 7.4) was pre-incubated at 37 °C. Aliquots of the compounds studied (1 mM in DMSO) were transferred to a 96-well flat-bottom UV-transparent microplate (Corning, CLS3635, Corning Inc, Corning, NY, USA) containing the buffer solution to obtain a 50 μM solution containing 5% DMSO (final volume, 300 μL). The plate was incubated without lid at 37 °C in a plate reader (Synergy H4, BioTek Instruments, Inc., Santa Clara, CA, USA) and the absorbance spectrum (244–400 nm) was acquired in sweep mode after 0, 15, 30, 60, 120, 180, and 240 min using a discontinuous kinetic procedure in Gen5 software (BioTek Instruments, Inc., Santa Clara, CA, USA). The time required to read the entire plate was 3 min. To determine the baseline, the compound solution was replaced with pure DMSO and subtracted from each reading. Compounds with an absorbance maximum of less than 0.20 AU were not evaluated using these assays due to the high experimental error. For other compounds, the relative absorbance difference between the first time point and 60 min at the most responsive wavelength was calculated. If the relative absorbance difference for the compound in the buffer was below 0.1, between 0.1–0.2, and above 0.2, the compound was classified as stable, intermediate, and unstable, respectively."}, "hMAO-B": {"molecular_target": "T3, hMAO-B (Homo sapiens, UniProt P27338)", "T3 construct": "purchased Sigma Aldrich; host or cells: BTI-TN-5B1-4 insect cells", "T3 sequence (P27338 1-520)": "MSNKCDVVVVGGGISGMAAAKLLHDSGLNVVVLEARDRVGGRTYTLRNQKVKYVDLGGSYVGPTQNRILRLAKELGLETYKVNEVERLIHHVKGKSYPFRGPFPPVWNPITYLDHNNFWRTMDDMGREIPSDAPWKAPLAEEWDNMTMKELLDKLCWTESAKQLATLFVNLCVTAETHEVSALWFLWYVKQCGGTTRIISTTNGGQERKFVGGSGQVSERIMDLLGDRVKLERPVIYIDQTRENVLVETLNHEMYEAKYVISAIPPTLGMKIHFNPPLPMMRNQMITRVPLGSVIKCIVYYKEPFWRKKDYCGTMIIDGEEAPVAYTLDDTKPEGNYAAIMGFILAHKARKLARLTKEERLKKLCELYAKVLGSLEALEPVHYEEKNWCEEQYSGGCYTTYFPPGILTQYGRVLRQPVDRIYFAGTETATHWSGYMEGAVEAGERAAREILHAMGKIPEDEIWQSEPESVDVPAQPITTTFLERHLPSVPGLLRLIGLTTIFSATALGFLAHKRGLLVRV", "assay": "Monoamine oxidase assay, hMAO-B", "format": "biochemical", "conditions": "30 min pre-incubation, read-out: Residual activity [%] ± SD, hMAO-B", "protocol": "The effects of the test compounds on hMAO were investigated using fluorimetric assay. Recombinant hMAO-A and hMAO-B, expressed in BTI-TN-5B1-4 insect cells, horseradish peroxidase type II and p-tyramine hydrochloride were purchased from Sigma Aldrich. Amplex Red was synthesized as previously described.\nBriefly, 50 mM sodium phosphate buffer (pH = 7.4, 0.05 vol.% Triton X-114) containing the compounds or the reference inhibitors and hMAO were incubated at 37 °C for 30 min. The reaction was started by adding Amplex Red (final concentration, 250 µM), horseradish peroxidase (final activity, 1 U/mL), and p-tyramine (final concentration, 1 mM). The increase in fluorescence (λex = 530 nm, λem = 590 nm) was monitored for 30 min at 37 °C. DMSO at a concentration of 1.5% (v/v) was used for the control experiments. For the determination of blank (b), the enzyme was replaced by phosphate-buffered solution. Each measurement was performed in duplicate. Inhibitory potencies were expressed as residual activities (RA), as described under the Cholinesterase assay section."}, "[2]": {"conditions": "30 min pre-incubation, SDS activator"}, "[3]": {"conditions": "30 min pre-incubation, SDS activator, read-out: IC50 (µM), β5i"}, "[4]": {"conditions": "0 min pre-incubation (IC50 shift), read-out: IC50 (µM), β5i, without pre-incubation"}},
  "note": "Where two headings read alike, the source gives them in different places.",
  "data": [
    {"smiles": "CC(=O)Oc1cccc2oc(C#N)nc12", "note": "[Compound 14]", "values": [
      {"measurement": "IC50 (µM), β5i", "setting": "β5i subunit of human iCP; [2]", "result": "single digit micromolar"},
      {"measurement": "IC50", "setting": "β5i subunit of human iCP; [3]", "result": "19 ± 9", "unit": "µM"},
      {"measurement": "Group efficiency (GE)", "setting": "β5i subunit of human iCP", "result": 0.16},
      {"measurement": "β2i (RA [%])", "setting": "β2i subunit of human iCP; Table 3", "result": "NA (NA, Not active (RA above 90%))"},
      {"measurement": "Stability in Buffer (UV-Vis-based assay)", "setting": "[1]", "result": "stable ^c (relative absorbance difference for the compound in the buffer was below 0.1)"},
      {"measurement": "remaining activity at 100 µM", "setting": "hMAO-B", "result": "> 50", "unit": "%"}
    ]},
    {"smiles": "N#Cc1nc2cccc(O)c2o1", "note": "[Compound 13]", "values": [
      {"measurement": "IC50 (µM), β5i", "setting": "β5i subunit of human iCP; [2]", "result": "single digit micromolar"},
      {"measurement": "IC50", "setting": "β5i subunit of human iCP; [3]", "result": "2.1 ± 1.2", "unit": "µM"},
      {"measurement": "Group efficiency (GE)", "setting": "β5i subunit of human iCP", "result": 1.60},
      {"measurement": "β2i (RA [%])", "setting": "β2i subunit of human iCP; Table 3", "result": 83, "unit": "%"},
      {"measurement": "Stability in Buffer (UV-Vis-based assay)", "setting": "[1]", "result": "stable ^c (relative absorbance difference for the compound in the buffer was below 0.1)"},
      {"measurement": "remaining activity at 100 µM", "setting": "hMAO-B", "result": "> 50", "unit": "%"}
    ]},
    {"smiles": "COc1cccc2oc(C#N)nc12", "note": "[Compound 6]", "values": [
      {"measurement": "IC50", "setting": "β5i subunit of human iCP; [3]", "result": "11 ± 7", "unit": "µM"},
      {"measurement": "Group efficiency (GE)", "setting": "β5i subunit of human iCP", "result": 0.44},
      {"measurement": "β2i (RA [%])", "setting": "β2i subunit of human iCP; Table 3", "result": "NA (NA, Not active (RA above 90%))"},
      {"measurement": "Stability in Buffer (UV-Vis-based assay)", "setting": "[1]", "result": "stable ^c,d (relative absorbance difference for the compound in the buffer was below 0.1)"},
      {"measurement": "remaining activity at 100 µM", "setting": "hMAO-B", "result": "35 ± 1", "unit": "%"}
    ]},
    {"smiles": "CC(C)C[C@H](NC(=O)CCCn1c(C#N)nc2ccccc21)B1O[C@@H]2C[C@@H]3C[C@@H](C3(C)C)[C@]2(C)O1", "note": "[Compound 31]", "values": [
      {"measurement": "IC50", "setting": "β5i subunit of human iCP; [3]", "result": "5.7 ± 0.9", "unit": "µM"},
      {"measurement": "β2i (RA [%])", "setting": "β2i subunit of human iCP; Table 6", "result": "NA (NA, Not active (RA above 95%))"},
      {"measurement": "Stability in Buffer (UV-Vis-based assay)", "setting": "[1]", "result": "stable ^b,c (relative absorbance difference for the compound in the buffer was below 0.1)"},
      {"measurement": "remaining activity at 100 µM", "setting": "hMAO-B", "result": "> 50", "unit": "%"}
    ]},
    {"smiles": "C=Cc1nc(CC(=O)N[C@@H](CC(C)C)B2O[C@@H]3C[C@@H]4C[C@@H](C4(C)C)[C@]3(C)O2)cs1", "note": "[Compound 28]", "values": [
      {"measurement": "IC50", "setting": "β5i subunit of human iCP; [3]", "result": 1.4, "unit": "µM"},
      {"measurement": "β2i (RA [%])", "setting": "β2i subunit of human iCP; Table 6", "result": "NA (NA, Not active (RA above 95%))"},
      {"measurement": "remaining activity at 100 µM", "setting": "hMAO-B", "result": "> 50", "unit": "%"}
    ]},
    {"smiles": "CC(C)C[C@H](NC(=O)CCn1c(C#N)nc2ccccc21)B(O)O", "note": "[Compound 34]", "values": [
      {"measurement": "IC50", "setting": "β5i subunit of human iCP; [4]", "result": 5.1, "unit": "µM"},
      {"measurement": "IC50", "setting": "β5i subunit of human iCP; [3]", "result": "2.2 ± 0.6", "unit": "µM"},
      {"measurement": "β2i (RA [%])", "setting": "β2i subunit of human iCP; Table 6", "result": "NA (NA, Not active (RA above 95%))"},
      {"measurement": "remaining activity at 100 µM", "setting": "hMAO-B", "result": "> 50", "unit": "%"}
    ]},
    {"smiles": "CC(C)C[C@H](NC(=O)Cc1ccc2oc(C#N)nc2c1)B1O[C@@H]2C[C@@H]3C[C@@H](C3(C)C)[C@]2(C)O1", "note": "[Compound 39]", "values": [
      {"measurement": "IC50", "setting": "β5i subunit of human iCP; [4]", "result": "3.2 ± 0.4", "unit": "µM"},
      {"measurement": "IC50", "setting": "β5i subunit of human iCP; [3]", "result": "3.1 ± 0.3", "unit": "µM"},
      {"measurement": "β2i (RA [%])", "setting": "β2i subunit of human iCP; Table 6", "result": "NA (NA, Not active (RA above 95%))"},
      {"measurement": "Stability in Buffer (UV-Vis-based assay)", "setting": "[1]", "result": "stable ^b,c (relative absorbance difference for the compound in the buffer was below 0.1)"},
      {"measurement": "Stability in buffer solutions", "setting": "[1]; assay buffer / PBS pH 7.4", "result": "stable"},
      {"measurement": "remaining activity at 100 µM", "setting": "hMAO-B", "result": "47 ± 1", "unit": "%"}
    ]}
  ]
}
